According to patent US9028856B2, “Synergistic pesticide compositions” (priority 2008, dated 2015):
Where two headings read alike, the source gives them in different places.

How the values were obtained:
[1] = tested on: Argentine ant, Linepithema humile; experiment: Knockdown/mortality of ant workers under continuous exposure on treated glazed tile; settings: glazed tile
Summary of the method: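 0.5% AI imidacloprid in acetone, alone or with 0.1, 1.0 or 5.0% additive (benzenepropanoic acid, oleic acid, methyl oleate, methyl linoleate, methyl palmitate or BHA), 1 ml dried overnight on glazed tile (~161 cm^2). Ten workers confined under continuous exposure, water from 3 h; knockdown/mortality scored at intervals and 24 h; ≥3 replicates.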

[2] = tested on: Cimex lectularius (adults); experiment: Efficacy on glazed tiles (acetone solutions or EC formulations), continuous exposure; type: in vivo; settings: for mortality at 50 mg/m2 / mortality at 10 mg/m2: Cimex lectularius, read-out: % KD and Mortality
Method: Test Insects: Culex quinquefasciatus (adults) (3 minutes exposure time according to USDA Petri Dish Method), Musca domestica (adults), susceptible and resistant strain, Blattella germanica (males), Cimex lectularius (adults) (all: continuous exposure time)
Application: The EC formulation (diluted with water 1:9) were applied as 0.85 ml solutions onto glazed tiles (15 cm×15 cm)
Evaluation: Knock down after 15, and 30 minutes, 1, 2, 3, 4, 6 and 24 hours (mortality)
Test Insects: Culex quinquefasciatus (adults) (3 minutes exposure time according to USDA Petri Dish Method), Cimex lectularius (adults), Acheta domesticus (middle nymphs) (both: continuous exposure time)
Application: The active ingredients were applied as 1 ml acetone solutions onto glazed tiles (15 cm×15 cm)
Evaluation: Knock down after 3, 9 (mosquitoes only), 15, and 30 minutes, 1, 2, 3, 4 and 24 hours (mortality)
Test Insects: Culex quinquefasciatus (adults) (3 minutes exposure time according to USDA Petri Dish Method), Cimex lectularius (adults), (continuous exposure time)
Test Insects: Cimex lectularius, Culex quinquefasciatus, Musca domestica (all adults, susceptible strains)
Application: The active ingredients were applied as 1 ml acetone solutions onto glazed tiles (15 cm×15 cm), continuous exposure time

[3] = tested on: tropical house mosquito Culex quinquefasciatus (adults, 3 days old); experiment: Efficacy of formulations on surfaces (glazed/unglazed tiles, plywood), ten 3 day old mosquitoes, 3 min exposure; type: in vivo; settings: EC formulation, 3 minutes exposure
Summary of the method: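 Test agents in acetone, 1 ml pipetted onto 15×15 cm glazed tiles (plywood/unglazed tiles also used; 1 cm edge untreated). USDA Petri Dish Method: ten 3-day-old adults held 3 min under a perforated dish, then given a water-soaked cotton pad. Knock-down scored 3 min–4 h, mortality at 24 h; mean of three batches.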

[4] = octanol-water partition coefficient (Log K ow), Table 1; cited from earlier work
[5] = Table 57, Argentine ant, continuous exposure
[6] = Table 46, Trial 1, fipronil/Compound A in acetone
[7] = Table 49, fipronil/adjuvant in acetone
[8] = 2 hr, Table 46, Trial 1, fipronil/Compound A in acetone
[9] = 2 hr, Table 49, fipronil/adjuvant in acetone
[10] = 4 hr, Table 46, Trial 1, fipronil/Compound A in acetone
[11] = 0.1% = 50 mg Bendiocarb/m^2 on glazed tiles
[12] = 15′, on tiles, insecticide alone (imidacloprid 50 mg/m^2, Bendiocarb 50 mg/m^2, Ethiprole 10 mg/m^2, DTM 1 mg/m^2), no Compound A
[13] = 1 h, on tiles, insecticide alone (imidacloprid 50 mg/m^2, Bendiocarb 50 mg/m^2, Ethiprole 10 mg/m^2, DTM 1 mg/m^2), no Compound A
[14] = 2 h, on tiles, insecticide alone (imidacloprid 50 mg/m^2, Bendiocarb 50 mg/m^2, Ethiprole 10 mg/m^2, DTM 1 mg/m^2), no Compound A
[15] = 3 h, on tiles, insecticide alone (imidacloprid 50 mg/m^2, Bendiocarb 50 mg/m^2, Ethiprole 10 mg/m^2, DTM 1 mg/m^2), no Compound A
[16] = 4 h, on tiles, insecticide alone (imidacloprid 50 mg/m^2, Bendiocarb 50 mg/m^2, Ethiprole 10 mg/m^2, DTM 1 mg/m^2), no Compound A
[17] = 6 h, on tiles, insecticide alone (imidacloprid 50 mg/m^2, Bendiocarb 50 mg/m^2, Ethiprole 10 mg/m^2, DTM 1 mg/m^2), no Compound A
[18] = 24 h, on tiles, insecticide alone (imidacloprid 50 mg/m^2, Bendiocarb 50 mg/m^2, Ethiprole 10 mg/m^2, DTM 1 mg/m^2), no Compound A
[19] = 0.1% = 50 mg imidacloprid/m^2 on glazed tiles
[20] = Table 4 (Ex. 1), continuous exposure
[21] = Table 7 (Ex. 4), continuous exposure
[22] = Table 8 (Ex. 5), continuous exposure
[23] = Table 10 (Ex. 7), continuous exposure
[24] = Table 12 (Ex. 9), continuous exposure
[25] = Table 14 (Ex. 11), continuous exposure
[26] = Table 16 (Ex. 13), continuous exposure
[27] = Table 19 (Ex. 16), continuous exposure
[28] = Table 20 (Ex. 17), continuous exposure
[29] = 0.02% = 10 mg Ethiprole/m^2 on glazed tiles
[30] = Table 27, aqueous deltamethrin/adjuvant
[31] = Table 47, Trial 2, fipronil/Compound A in acetone

CC[S+]([O-])c1c(C#N)nn(-c2c(Cl)cc(C(F)(F)F)cc2Cl)c1N (stereo not shown) [Ethiprole (1%)]
0%: Average % Mortality after 30 min [1, 5] | Average % Mortality after 45 min ([1]; Table 57, Argentine ant, continuous exposure, 45 min) | Average % Mortality after 60 min [1, 5] | Average % Mortality after 15 min ([1]; Table 57, Argentine ant, continuous exposure, adjuvant = Compound A 1% + Compound B 0.5%)

N#Cc1nn(-c2c(Cl)cc(C(F)(F)F)cc2Cl)c(N)c1[S+]([O-])C(F)(F)F (stereo not shown) [Fipronil (.01%)]
100%: Average % Mortality after 24 hr [1, 6] | Average % Mortality after 24 hr [1, 7]
0%: Average % Mortality after 5 min [1, 6] | Average % Mortality after 15 min [1, 6] | Average % Mortality after 30 min [1, 6] | Average % Mortality after 30 min [1, 7] | Average % Mortality after 60 min [1, 6] | Average % Mortality after 60 min [1, 7] | Average % Mortality after 2 hr [1, 8] | Average % Mortality after 2 hr [1, 9] | Average % Mortality after 3 hr [1, 7]
47%: Average % Mortality after 4 hr [1, 10]

CNC(=O)Oc1cccc2c1OC(C)(C)O2 [bendiocarb]
100%: % KD and Mortality ([2]; 30′, on tiles, insecticide alone (imidacloprid 50 mg/m^2, Bendiocarb 50 mg/m^2, Ethiprole 10 mg/m^2, DTM 1 mg/m^2), no Compound A) | mortality at 50 mg/m2 ([2]; 1 h) | mortality at 50 mg/m2 ([2]; 2 h) | mortality at 50 mg/m2 ([2]; 3 h) | mortality at 50 mg/m2 ([2]; 4 h) | mortality at 50 mg/m2 ([2]; 6 h) | mortality at 50 mg/m2 ([2]; 24 h) | mortality at 50 mg/m2 [2] | % KD and Mortality 2 h [3, 11] | % KD and Mortality 3 h [3, 11] | % KD and Mortality 4 h [3, 11] | % KD and Mortality 6 h [3, 11] | % KD and Mortality 24 h [3, 11]
0%: % KD and Mortality 15′ [3, 11] | % KD and Mortality 30′ [3, 11]
1.7: Log P [4]
80%: % KD and Mortality 1 h [3, 11]

O=[N+]([O-])NC1=NCCN1Cc1ccc(Cl)nc1 [imidacloprid]
3%: Average % Knockdown & Mortality after 3 hr [1, 21] | Average % Knockdown & Mortality after 7 hr [1, 21]
7%: Average % Knockdown & Mortality after 4 hr [1, 22] | Average % Knockdown & Mortality after 6 hr [1, 27] | Average % Knockdown & Mortality after 4 hr [1, 28]
0%: % KD and Mortality 15′ [3, 19] | % KD and Mortality 30′ [3, 19] | % KD and Mortality 1 h [3, 19] | Average % Knockdown & Mortality after 2 hr ([1]; 2 hr, Table 22, imidacloprid/tritylchloride in acetone, continuous exposure) | Average % Knockdown & Mortality after 2 hr ([1]; 2 hr, Table 25, imidacloprid/dibutyl sebacate (DBS) in acetone) | Average % Knockdown & Mortality after 4 hr ([1]; 4 hr, Table 25, imidacloprid/dibutyl sebacate (DBS) in acetone) | Average % Knockdown & Mortality after 3 hr [1, 20] | Average % Knockdown & Mortality after 7 hr [1, 20] | Average % Knockdown & Mortality after 15 min [1, 22] | Average % Knockdown & Mortality after 15 min [1, 23] | Average % Knockdown & Mortality after 4 hr [1, 23] | Average % Knockdown & Mortality after 3 hr [1, 24] | Average % Knockdown & Mortality after 7 hr [1, 24] | Average % Knockdown & Mortality after 2 hr [1, 25] | Average % Knockdown & Mortality after 4 hr [1, 25] | Average % Knockdown & Mortality after 4 hr [1, 27] | Average % Knockdown & Mortality after 2 hr [1, 28]
10%: % KD and Mortality 2 h [3, 19]
4%: Average % Knockdown & Mortality after 5 hr ([1]; 5 hr, Table 22, imidacloprid/tritylchloride in acetone, continuous exposure)
14%: Average % Knockdown & Mortality after 2 hr [1, 26]
100%: mortality at 50 mg/m2 [2, 12] | mortality at 50 mg/m2 [2, 13] | mortality at 50 mg/m2 [2, 14] | mortality at 50 mg/m2 [2, 15] | mortality at 50 mg/m2 [2, 16] | mortality at 50 mg/m2 [2, 17] | mortality at 50 mg/m2 [2, 18] | % KD and Mortality 24 h [3, 19]
17%: Average % Knockdown & Mortality after 18 hr [1, 26]
20%: % KD and Mortality 3 h [3, 19] | % KD and Mortality 4 h [3, 19] | % KD and Mortality 6 h [3, 19]

CC[S+]([O-])c1c(C#N)nn(-c2c(Cl)cc(C(F)(F)F)cc2Cl)c1N (stereo not shown) [ethiprole]
0%: mortality at 10 mg/m2 [2, 12] | mortality at 10 mg/m2 [2, 13] | % KD and Mortality 15′ [3, 29] | % KD and Mortality 30′ [3, 29] | % KD and Mortality 1 h [3, 29]
100%: mortality at 10 mg/m2 [2, 18]
70%: mortality at 10 mg/m2 [2, 17]
2.90: Log P [4]
10%: mortality at 10 mg/m2 [2, 14] | mortality at 10 mg/m2 [2, 15] | mortality at 10 mg/m2 [2, 16] | % KD and Mortality 2 h [3, 29] | % KD and Mortality 3 h [3, 29] | % KD and Mortality 4 h [3, 29] | % KD and Mortality 6 h [3, 29]
60%: % KD and Mortality 24 h [3, 29]

CC1(C)[C@H](C(=O)O[C@H](C#N)c2cccc(Oc3ccccc3)c2)[C@@H]1C=C(Br)Br [deltamethrin (1%)]
82%: Average % Mortality after 30 min [1, 30]
9%: Average % Mortality after 10 min ([1]; 10 min, Table 27, aqueous deltamethrin/adjuvant)
67%: Average % Mortality after 20 min ([1]; 20 min, Table 27, aqueous deltamethrin/adjuvant)
33%: Average % Mortality after 15 min [1, 30]

N#Cc1nn(-c2c(Cl)cc(C(F)(F)F)cc2Cl)c(N)c1[S+]([O-])C(F)(F)F (stereo not shown) [Fipronil (.001%)]
74%: Average % Mortality after 4 hr [1, 10]
100%: Average % Mortality after 24 hr [1, 6] | Average % Mortality after 24 hr [1, 31] | Average % Mortality after 24 hr [1, 7]
3%: Average % Mortality after 3 hr [1, 7]
0%: Average % Mortality after 5 min [1, 6] | Average % Mortality after 5 min [1, 31] | Average % Mortality after 15 min [1, 6] | Average % Mortality after 15 min [1, 31] | Average % Mortality after 30 min [1, 6] | Average % Mortality after 30 min [1, 31] | Average % Mortality after 30 min [1, 7] | Average % Mortality after 60 min [1, 6] | Average % Mortality after 60 min [1, 31] | Average % Mortality after 60 min [1, 7] | Average % Mortality after 2 hr [1, 8] | Average % Mortality after 2 hr ([1]; 2 hr, Table 47, Trial 2, fipronil/Compound A in acetone) | Average % Mortality after 2 hr [1, 9]
28%: Average % Mortality after 4 hr ([1]; 4 hr, Table 47, Trial 2, fipronil/Compound A in acetone)
